Test systems include NCI-H522; HCC 2998; OVCAR-3; RXF 393; SK-MEL-5; SNB-75; ACHN; IGROV-1; HL-60; K562; SK-MEL-28; UACC-62; U-251; HCT-116; SK-OV-3; NCI-H460; HCT-15; COLO 205; NCI-H226; UO-31.
Test in all cases: inhibition of tumour cell growth, NCI panel, 48 h

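Five compound concentrations were applied to cells in 96-well plates for 48 hours; endpoints were derived by simple linear interpolation of the resulting dose-response curve. GI50 = concentration required for 50% inhibition of growth.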 Active and inactive are the calls of the source. Cut-off read from the data, not from the text of the source: active = GI50 up to about 1.1 µM and inactive = higher.

As for `Cc1nnc(Nc2ccc(Cl)cc2)o1`, the GI50 in the experiment on NCI-H522, in the experiment with HCC 2998, in the experiment with OVCAR-3, in the experiment on RXF 393, with SK-MEL-5 and with SNB-75 was > 10 µM (inactive) each time. The GI50 with ACHN, in the experiment on IGROV-1, in the experiment with HL-60, in the experiment with K562, in the experiment with SK-MEL-28 and in the experiment on UACC-62 was > 10 µM (inactive) throughout. Further, the GI50 in the experiment on U-251 is > 10 µM (inactive); with HCT-116, > 10 µM (inactive); in the experiment with SK-OV-3, > 10 µM (inactive); in the experiment on NCI-H460 it was > 10 µM (inactive); in the experiment with HCT-15, above 10 µM; in the experiment on COLO 205, > 10 µM (inactive). Further, the GI50 with NCI-H226 and in the experiment with UO-31 was > 10 µM (inactive) each time.

In the case of `Cc1cc2c(ccc[n+]2[O-])[n+]([O-])c1`, the GI50 in the experiment on NCI-H522 is > 100 µM (inactive); in the experiment with HCC 2998, > 100 µM (inactive); in the experiment with OVCAR-3, > 100 µM (inactive); in the experiment with RXF 393, 4.74 µM (inactive); in the experiment with SK-MEL-5, > 100 µM (inactive); in the experiment on SNB-75 it was > 100 µM (inactive). Besides, the GI50 in the experiment with ACHN, in the experiment on IGROV-1, in the experiment with HL-60, in the experiment on K562, in the experiment with SK-MEL-28 and in the experiment on UACC-62 was > 100 µM (inactive) throughout. Further, the GI50 with U-251 is > 100 µM (inactive); with HCT-116 it was > 100 µM (inactive); with SK-OV-3, > 100 µM (inactive); with NCI-H460, > 100 µM (inactive); with HCT-15, above 100 µM; in the experiment on COLO 205, > 100 µM (inactive). Further, the GI50 with NCI-H226 and with UO-31 was > 100 µM (inactive) in each case.

Turning to `CC1C(=O)N(c2ccccc2)NC12CCCc1ccccc12` (centres undefined), the GI50 with NCI-H522, in the experiment with HCC 2998, with OVCAR-3, in the experiment on RXF 393, in the experiment on SK-MEL-5 and in the experiment with SNB-75 was > 100 µM (inactive) throughout. Besides, the GI50 in the experiment on ACHN, with IGROV-1, in the experiment on HL-60, with K562, with SK-MEL-28 and in the experiment with UACC-62 was > 100 µM (inactive) each time. Besides, the GI50 in the experiment on U-251 is > 100 µM (inactive); with HCT-116, > 100 µM (inactive); in the experiment with SK-OV-3, > 100 µM (inactive); with NCI-H460, > 100 µM (inactive); in the experiment on HCT-15 it was above 100 µM; in the experiment with COLO 205 it was > 100 µM (inactive). Moreover, the GI50 with NCI-H226 and with UO-31 was > 100 µM (inactive) each time.

As for `CC(C)(C)C(=O)OCC1C(=O)OCC1C(=O)N1Cc2cc3ccccc3nc2C1` (centres undefined), the GI50 in the experiment on NCI-H522 was 0.569 µM (active); in the experiment on HCC 2998, 15.5 µM (inactive); in the experiment on OVCAR-3 it was 4.07 µM (inactive); in the experiment on RXF 393 it was 1.5 µM (inactive); with SK-MEL-5, 15.2 µM (inactive); in the experiment on SNB-75 it was 7.74 µM (inactive). For the same compound, the GI50 in the experiment with ACHN was 2.36 µM (inactive); in the experiment with IGROV-1, 15 µM (inactive); with HL-60, 0.748 µM (active); in the experiment on K562, 0.728 µM (active); in the experiment with SK-MEL-28 it was 3.21 µM (inactive); in the experiment with UACC-62, 4.51 µM (inactive). Besides, the GI50 in the experiment on U-251 is 9.2 µM (inactive); with HCT-116, 2.09 µM (inactive); in the experiment with SK-OV-3 it was 16.1 µM (inactive); with NCI-H460, 3.93 µM (inactive); in the experiment on HCT-15 it was 1.75 µM; with COLO 205, 0.957 µM (active). The GI50 is 6.56 µM (inactive) in the experiment with NCI-H226 and 2.47 µM (inactive) with UO-31.

Regarding `CC(=O)[C@H]1CCC2[C@@H]3CC=C4C(O)C(OS(=O)(=O)O)CC[C@]4(C)C3CC[C@@]21C` (some centres undefined), the GI50 with NCI-H522, in the experiment with HCC 2998, in the experiment on OVCAR-3, in the experiment on RXF 393, in the experiment with SK-MEL-5 and in the experiment on SNB-75 was > 100 µM (inactive) each time. Besides, the GI50 in the experiment with IGROV-1 was > 100 µM (inactive); in the experiment with HL-60, > 31.6 µM (inactive); in the experiment with K562, > 100 µM (inactive); with SK-MEL-28 it was > 100 µM (inactive); in the experiment on UACC-62, > 100 µM (inactive); in the experiment on U-251 it was > 100 µM (inactive). Besides, the GI50 was > 100 µM (inactive) in the experiment with HCT-116; > 100 µM (inactive) in the experiment with SK-OV-3; > 100 µM (inactive) in the experiment on NCI-H460; above 100 µM with HCT-15; > 100 µM (inactive) in the experiment on COLO 205; > 100 µM (inactive) in the experiment with NCI-H226. For the same compound, the GI50 in the experiment on UO-31 is > 100 µM (inactive).

In the case of `CCN1CCC(O)(/C=C/c2ccc(C)cc2)C(C(=O)/C=C/c2ccc(C)cc2)C1` (centres undefined), the GI50 with NCI-H522 was 1.7 µM (inactive); in the experiment with HCC 2998 it was 2.29 µM (inactive); with OVCAR-3, 6.32 µM (inactive); in the experiment on RXF 393, 2.79 µM (inactive); in the experiment on SK-MEL-5, 3.43 µM (inactive); with SNB-75, 9.79 µM (inactive). Moreover, the GI50 in the experiment with ACHN was 3.7 µM (inactive); with IGROV-1, 6.55 µM (inactive); in the experiment on HL-60, 1.79 µM (inactive); in the experiment on K562 it was 2.36 µM (inactive); in the experiment with SK-MEL-28 it was 5.86 µM (inactive); in the experiment on UACC-62, 3.08 µM (inactive). Moreover, the GI50 in the experiment with U-251 is 3.12 µM (inactive); in the experiment with HCT-116, 1.91 µM (inactive); in the experiment on SK-OV-3 it was 15.6 µM (inactive); in the experiment with NCI-H460, 4.45 µM (inactive); in the experiment with HCT-15, 4.06 µM; with COLO 205, 1.75 µM (inactive). In addition, the GI50 with NCI-H226 is 15.5 µM (inactive); in the experiment on UO-31, 3.85 µM (inactive).

Consider `CN(C)c1ccc(/C=C2/SC(=S)NC2=O)cc1`, for which the GI50 in the experiment with NCI-H522 is > 100 µM (inactive); with HCC 2998, > 100 µM (inactive); in the experiment on OVCAR-3, > 100 µM (inactive); in the experiment with RXF 393, > 100 µM (inactive); in the experiment with SK-MEL-5, > 100 µM (inactive); in the experiment with SNB-75 it was 95.3 µM (inactive). Besides, the GI50 with ACHN, in the experiment on IGROV-1, in the experiment on HL-60, with K562, with SK-MEL-28 and in the experiment on UACC-62 was > 100 µM (inactive) throughout. In addition, the GI50 with U-251 was 61.7 µM (inactive); in the experiment on HCT-116, 33.2 µM (inactive); in the experiment with SK-OV-3, 29.1 µM (inactive); in the experiment on NCI-H460, > 100 µM (inactive); in the experiment on HCT-15 it was above 100 µM; with COLO 205, > 100 µM (inactive). In addition, the GI50 in the experiment with NCI-H226 and with UO-31 was > 100 µM (inactive) in each case.

These data come from ChEMBL document CHEMBL1201862, “PubChem BioAssay data set” (2004).
